89 molecules from PubChem BioAssay AID463204 (Broad Institute, 2010) can be followed below.

Molecules are shown by their SMILES. Active and inactive are the calls of the source.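 Rule for the calls: active = AC50 no more than ten times the top concentration tested, that is within one log above it; inconclusive = flat curve fit with activity between 30% and 70%, or invalid poor fit; inactive = AC50 beyond ten times the top tested dose.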

For orientation: AC50 means the concentration at which the activity in the assay is half-maximal.

This assay has as its system S. cerevisiae Mot1-301 ts growth rescue, BacTiter-Glo ATP luminescence. Nature of the assay: restored Mot1-301 yeast growth at 38.5C – whole organism, S. cerevisiae, Mot1-301 ts mutant, luminescence, dose retest, SUMOylation pathway inhibitor project, confirmation (AID 463204).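 Note: growth at restrictive 38.5 degrees C of Mot1-301 OY566 strain; actives raise luminescence by restoring growth of the ts mutant at high temperature.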
For `O=C(O)c1cccc(N2C(=O)C3C4C=CC(C4=C(c4ccccc4)c4ccccc4)C3C2=O)c1` (centres undefined), the AC50 was > 42 µM (inactive). For `CC(C)(C)C(=O)NC1CCN(CC(=O)Nc2ccc3c(c2)OCO3)CC1`, the AC50 is > 42 µM (inactive). The result for `CCCn1c(N)cc(=O)n(CCC)c1=O` reads > 42 µM (inactive). Take `O=C1C2CCCN2C(=S)N1C1CCCCC1` (centres undefined): the AC50 was > 42 µM (inactive). With `CC(=O)N(C(C)=O)C1=C(C#N)C2(CCCCC2)Cc2ccccc21`, the AC50 was > 42 µM (inactive). As for `Cc1ccc(C(C(=O)Nc2ccc3c(c2)OCO3)N(C)C(=O)/C=C\c2ccc3c(c2)OCO3)cc1` (centres undefined), the AC50 was > 42 µM (inactive). With `O=C(OCC(=O)N1CCN(c2ccccc2)CC1)c1nc(Cl)ccc1Cl`, the AC50 was > 42 µM (inactive). The figure for `CC(C)C(NC(=S)Nc1ccccc1)C(=O)O` (centres undefined) is > 42 µM (inactive); for `Cc1cc(NC(=O)c2ccccc2F)n(C(C)(C)C)n1` it is > 42 µM (inactive).

With `Cc1c(C(=O)OCC(=O)Nc2ccc(S(N)(=O)=O)cc2)oc2c1ccc1ccccc12`, the AC50 was > 42 µM (inactive). Regarding `CCOC(=O)N1CCN(c2nnnn2-c2ccccc2)CC1`, the AC50 was > 42 µM (inactive). `COc1ccc2cc(C(=O)Nc3ccc(Cl)cc3)sc(=O)c2c1OC`: the AC50 is > 42 µM (inactive). As for `O=C(c1ccc(Br)cc1)C(CN1CCOCC1)c1ccccc1` (centres undefined), the AC50 was 0.65 µM. With `COc1cc(SC)ccc1C(=O)N1CCCCCC1`, the AC50 was > 42 µM (inactive). `N#CCSc1nc2c(c(C3CC=CCC3)c1C#N)CCC2` (centres undefined): the AC50 is > 42 µM (inactive). Consider `O=C1c2ccccc2C(=O)N1CCCCSc1nc2ccccc2c(=O)n1CCCN1CCOCC1`, for which the AC50 was > 42 µM (inactive). Take `O=C1c2ccccc2NC(c2ccccc2O)N1O` (centres undefined): the AC50 was > 42 µM (inactive). Turning to `CCC(=O)Nc1ccc(Br)c(Cl)c1`, the AC50 is > 42 µM (inactive).

In the case of `CCC(=O)N(Cc1ccc2c(c1)OCO2)Cc1cc2cc(OC)ccc2[nH]c1=O`, the AC50 was > 42 µM (inactive). On to `Cc1ccc(S(=O)(=O)N2[C@@H](c3ccccc3F)C(C(=O)O)=CC[C@H]2c2ccc3c(c2)OCO3)cc1`, for which the AC50 was > 42 µM (inactive).

Turning to `COc1ccc(-c2nnc(SCC(C)C)o2)cc1`, the AC50 was 31.1 µM. For `COc1cccc(NC(=O)CN(C)C(=O)c2ccccc2OCc2c(C)noc2C)c1`, the AC50 was > 42 µM (inactive). The result for `O=C(CSc1nnc(-c2ccccc2Cl)o1)Oc1ccc(Br)cc1` reads > 42 µM (inactive); that for `FC(F)(F)c1nnc(-c2ccccc2)nc1Oc1ccc(Cl)cc1Cl`, > 42 µM (inactive). As for `CCN1CCN(CC(=O)Nc2cccc(C)c2C)C(=O)C1=O`, the AC50 was > 42 µM (inactive). Take `CC(C)c1ccc(-c2cc(C(=O)N3CCOCC3)c3cc(Br)ccc3n2)cc1`: the AC50 was > 42 µM (inactive). With `O=C(NNC(=O)c1ccc(-n2cncn2)c([N+](=O)[O-])c1)c1ccc(Cl)cc1`, the AC50 is > 42 µM (inactive). Take `CCC1(CC)NC(=O)N(CC(=O)OCC(=O)NC(=O)c2ccccc2)C1=O`: the AC50 was > 42 µM (inactive). Take `COc1cc(S(=O)(=O)NC2CCCC2)c(OC)cc1C`: the AC50 is > 42 µM (inactive). On to `COC(=O)c1cn(C(=O)c2cccc3ccccc23)c2ccccc12`, for which the AC50 is > 42 µM (inactive). Regarding `CN1C(=S)SC2CS(=O)(=O)CC21C` (centres undefined), the AC50 was > 21 µM (inactive). `CC(=O)N1CC(=O)Nc2ccc(Cl)cc2C1c1ccccc1` (centres undefined): the AC50 is > 42 µM (inactive). In the case of `CC(C)[C@H](NC(=O)C1(c2ccccc2)CCN(C(=O)OC(C)(C)C)CC1)C(=O)O`, the AC50 was > 42 µM (inactive).

In the case of `CCn1c(SCC(=O)NC2CCCCC2)nnc1C(C)NC(=O)c1ccccc1F` (centres undefined), the AC50 was > 42 µM (inactive). The result for `O=C(N1CCOCC1)C1(S(=O)(=O)c2ccccc2)CC=CC1` reads > 42 µM (inactive); that for `O=S(=O)(NCC1CCCN(Cc2ccccc2O)C1)c1cccc2cccnc12` (centres undefined), > 42 µM (inactive); that for `Cc1cc(C)cc(-n2ncc3c2CCCC3NC(=O)c2cc(C)[nH]n2)c1` (centres undefined), > 42 µM (inactive).

On to `CCNc1ccccc(C(=O)/C=C/c2ccc3c(c2)OCO3)c1=O`, for which the AC50 was > 42 µM (inactive). The figure for `COc1ccc(CN2CCNC(=O)C2CC(=O)NCc2cn3ccc(C)cc3n2)c(OC)c1` (centres undefined) is > 42 µM (inactive); for `CCOc1ccc(NC(=O)Nc2ccc3nsnc3c2)cc1` it is > 42 µM (inactive); for `O=C(Nc1cccc(O)c1)C(Cc1ccccc1)N1C(=O)c2cccc3cccc(c23)C1=O` (centres undefined) it is > 42 µM (inactive). Turning to `O=C(CSc1nc(-c2ccccc2)nc2ccc(F)cc12)Nc1cccc(C(=O)O)c1`, the AC50 was > 42 µM (inactive). In the case of `COc1cc(C)ccc1OCCCOc1ccccc1Br`, the AC50 was > 42 µM (inactive).

For the molecule `O=C(c1ccc(CS(=O)(=O)c2ccccc2)o1)N1CCOCC1`, the AC50 was > 42 µM (inactive).

`COc1cccc(/C=C2\SC(N3CCC(C)CC3)=NC2=O)c1OC`: the AC50 is > 42 µM (inactive).

For `O=C(COC(=O)[C@@H]1CC(O)CN1S(=O)(=O)c1ccccc1[N+](=O)[O-])Nc1ccc2ccccc2c1` (some centres undefined), the AC50 was > 42 µM (inactive).

Consider `CCc1nnc(NC(=O)CSc2nc3c(cc2C#N)CCCC3)s1`, for which the AC50 is > 42 µM (inactive). As to `COc1cc(OC)c(C(=O)N2CCN(c3ccccn3)CC2)cc1OC`, the AC50 is > 42 µM (inactive). As for `CCN1C(=O)N(C)[C@@H](c2ccccc2)C(C(=O)OC)=C1C`, the AC50 is > 42 µM (inactive). For `O=C(O)c1c(C(=O)O)c(-c2ccc(F)cc2)n2c1CCC2`, the AC50 was > 42 µM (inactive). Take `O=C(COC(=O)c1c(F)cccc1F)c1ccc[nH]1`: the AC50 is > 42 µM (inactive).

For the molecule `CCn1c(SC(=O)NC2CCCCC2)nnc1-c1cccs1`, the AC50 is 11.6 µM. On to `CCOC(=O)C1=C(C)Nc2ncnn2C1/C=C/c1ccccc1` (centres undefined), for which the AC50 is > 42 µM (inactive). Turning to `COc1cc(CN2CCCC(CO)(Cc3cccc(Cl)c3)C2)cc2c1OCO2` (centres undefined), the AC50 was > 42 µM (inactive). As for `CSc1ncc2ncn(C3OC(CO)C(O)C3O)c2n1` (centres undefined), the AC50 is > 42 µM (inactive). On to `Cc1nc(NCCN2CCOCC2)c2nnn(Cc3c(F)cccc3Cl)c2n1`, for which the AC50 is > 42 µM (inactive). Take `COc1ccc2c(C(=O)CN3CC(C)OC(C)C3)c[nH]c2c1` (centres undefined): the AC50 is > 42 µM (inactive). The figure for `COc1ccc(-n2c(-c3ccccc3)nc3ccccc3c2=O)cc1` is > 42 µM (inactive); for `CC(C)c1onc(C(=O)N(C)Cc2ccccc2)c1[N+](=O)[O-]` it is > 42 µM (inactive). For the molecule `Cc1ccc(C(=O)N/C(=C/c2ccccc2)C(=O)NCC2CCCO2)cc1` (centres undefined), the AC50 is > 42 µM (inactive). The figure for `Cc1ccc(-n2nnnc2C(Cl)(Cl)c2nnnn2-c2ccc(C)cc2)cc1` is 0.73 µM; for `COc1ccc(S(=O)(=O)Nc2ccc(NC(C)=O)cc2)cc1OC` it is > 42 µM (inactive); for `Cc1ccccc1CSc1n[nH]c(NS(=O)(=O)c2ccccc2)n1` it is > 21 µM (inactive). The result for `CCN(CC)/C(=N\S(=O)(=O)c1ccc(F)cc1)c1ccccc1` reads > 21 µM (inactive); that for `COc1ccccc1CNc1nc(SC)ncc1CO`, > 42 µM (inactive). The figure for `Cc1ccc(C(=O)N/C(=C\c2cccs2)C(=O)NCc2ccncc2)cc1` is > 42 µM (inactive); for `CN1C(=O)c2cccc3c(Cl)ccc(c23)C1=O` it is > 42 µM (inactive); for `Cc1ccc(NC(=O)CC2CS(=O)(=O)CC2CC(=O)Nc2ccc(C)c(C)c2)cc1C` (centres undefined) it is > 42 µM (inactive). As to `CCOC(=O)C1(CCOc2ccccc2)CCN(Cc2cccc(OC)c2O)CC1`, the AC50 is > 42 µM (inactive). On to `CCN(CC)CCNc1ncnc2c1[nH]c1ccc(OC)cc12`, for which the AC50 was > 42 µM (inactive). On to `COc1cc(C(=O)N/N=C/c2ccccn2)cc(OC)c1OC`, for which the AC50 is > 42 µM (inactive). The result for `CCc1nnc2n1N=C(c1ccc(Cl)cc1)CS2` reads > 42 µM (inactive); that for `O=C(OCC#CCSc1nnc(-c2ccccc2)o1)c1cc2ccccc2o1`, > 42 µM (inactive). The result for `C=CCOC(=O)C(C#N)c1nc2ccccc2nc1N1CCN(Cc2ccccc2)CC1` (centres undefined) reads > 42 µM (inactive). For the molecule `COc1ccc(CNS(=O)(=O)c2ccc3c(c2)CCN3C(=O)C2CCC2)cc1`, the AC50 was > 42 µM (inactive).

Regarding `O=C(Nc1nnc(-c2ccco2)o1)c1ccc(S(=O)(=O)N2CCCC2)cc1`, the AC50 is > 42 µM (inactive). As to `O=C(NC1CCCCC1)c1n[nH]c2c1CCCCC2`, the AC50 is > 42 µM (inactive). For `Cc1cccc(N2CN=c3s/c(=C\c4ccccn4)c(=O)n3C2)c1`, the AC50 was > 42 µM (inactive). Consider `CSc1cc(C)c(OCC(=O)Nc2c(C)nn(C)c2C)c(C)c1`, for which the AC50 was > 42 µM (inactive). For the molecule `N#Cc1cc2c(nc1SCc1cccnc1)CCC2`, the AC50 is > 42 µM (inactive).

`CCN(CC)C(=O)C1CCCN(c2ccc([N+](=O)[O-])cc2/C=N/NC(=O)c2cccc(Br)c2)C1` (centres undefined): the AC50 is > 42 µM (inactive). Turning to `COc1ccc(Cl)cc1NC(=O)C1CCCN(c2cc(C)nc3ncnn23)C1` (centres undefined), the AC50 was > 42 µM (inactive). Consider `Cc1ccc(NC(=O)/C=N/OCC(=O)NCc2ccccc2Cl)cc1`, for which the AC50 is > 42 µM (inactive). In the case of `O=C1CC(c2ccccc2)c2ccc(O)cc2O1` (centres undefined), the AC50 was > 42 µM (inactive). In the case of `COc1ccccc1OCCSc1nc2ccccc2n1CCC(=O)O`, the AC50 was > 42 µM (inactive). `CC(NC(=O)c1cnc2n(c1=O)CCS2)c1ccccc1` (centres undefined): the AC50 is > 42 µM (inactive). The result for `CC(=O)Nc1cccc(C(=O)OCC(=O)NCc2ccc(F)cc2)c1` reads > 42 µM (inactive); that for `CC1CCN(Cc2nc3c(c(=O)n(C)c(=O)n3C)n2CCc2ccccc2)CC1`, > 42 µM (inactive). Consider `COc1ccccc1CNC(=O)[C@H](C)NC(=O)C1CCN(C(=O)[C@@H](N)CC(C)C)CC1`, for which the AC50 was > 42 µM (inactive).
